Drawing on patent US20240360134A1, “PYRAZOLOPYRIMIDINES AND THEIR USES AS PDGFR INHIBITORS” (priority 2021, published 2024), this text covers IC50 for 18 compounds.

Some results are limits rather than exact numbers.

The target of assay [1] is PDGFRβ (Rattus norvegicus (Rat), UniProt Q05030). Description: PDGFRβ Cellular Assay (PDGFRb P-Y751 HTRF, PDGF-BB stimulated A10 cells). The format is cell-based. The following applies: A10 cells, 3 hours compound, 15 ng/mL PDGFbb for 10 minutes; read-out: PDGFR Cellular IC50. An outline of the steps: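 Rat A10 cells plated overnight were treated with compound for 3 h, stimulated with rat PDGF-BB (working stock 100 ng/mL in 10% FBS medium) for 10 min, then lysed.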
On the technique in general: TR-FRET usually uses a lanthanide donor and a delayed reading to cut background.

Assay [2] addresses Tb-labeled inactive PDGFRβ (Homo sapiens (Human), UniProt P09619). Briefly: biochemical. The class given is binding. The conditions noted are these: read-out: PDGFR Lantha IC50.
Assay [3] concerns the target His6-TEV-PDGFRβ (557-1016) (Homo sapiens (Human), UniProt P09619). Briefly: PDGFRβ HTRF Assay. The conditions noted are these: 800 μM ATP, 0.5 μM TK-substrate biotin peptide, 30 min pre-incubation, 3 hours reaction; read-out: PDGFR HTRF IC50. The format is biochemical.
Assay [4] addresses VEGFR2, unphosphorylated (Homo sapiens (Human), UniProt P35968). Description: VEGFR ADP GLO assay. The conditions noted are these: 5 nM VEGFR2, 1.2 mM ATP, 1 mg/mL Srctide, 180 min. The format is biochemical. The gist of the method: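 Luminescent ADP detection after a 180-min room-temperature reaction of srctide plus ATP (2 mg/mL and 2.4 mM in 2× mix) in pH 7.5 HEPES buffer with DTT, Pluronic and ovalbumin. Compounds, 11 points from 10 µM, first pre-incubated 30 min with enzyme (2× mix 10 nM). IC50s fitted after scaling between DMSO and 1 µM TAK-593 controls.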
For orientation: In ADP-Glo the light output rises with the ADP produced.

VEGFR2, unphosphorylated, sequence (P35968 whole entry, looked up): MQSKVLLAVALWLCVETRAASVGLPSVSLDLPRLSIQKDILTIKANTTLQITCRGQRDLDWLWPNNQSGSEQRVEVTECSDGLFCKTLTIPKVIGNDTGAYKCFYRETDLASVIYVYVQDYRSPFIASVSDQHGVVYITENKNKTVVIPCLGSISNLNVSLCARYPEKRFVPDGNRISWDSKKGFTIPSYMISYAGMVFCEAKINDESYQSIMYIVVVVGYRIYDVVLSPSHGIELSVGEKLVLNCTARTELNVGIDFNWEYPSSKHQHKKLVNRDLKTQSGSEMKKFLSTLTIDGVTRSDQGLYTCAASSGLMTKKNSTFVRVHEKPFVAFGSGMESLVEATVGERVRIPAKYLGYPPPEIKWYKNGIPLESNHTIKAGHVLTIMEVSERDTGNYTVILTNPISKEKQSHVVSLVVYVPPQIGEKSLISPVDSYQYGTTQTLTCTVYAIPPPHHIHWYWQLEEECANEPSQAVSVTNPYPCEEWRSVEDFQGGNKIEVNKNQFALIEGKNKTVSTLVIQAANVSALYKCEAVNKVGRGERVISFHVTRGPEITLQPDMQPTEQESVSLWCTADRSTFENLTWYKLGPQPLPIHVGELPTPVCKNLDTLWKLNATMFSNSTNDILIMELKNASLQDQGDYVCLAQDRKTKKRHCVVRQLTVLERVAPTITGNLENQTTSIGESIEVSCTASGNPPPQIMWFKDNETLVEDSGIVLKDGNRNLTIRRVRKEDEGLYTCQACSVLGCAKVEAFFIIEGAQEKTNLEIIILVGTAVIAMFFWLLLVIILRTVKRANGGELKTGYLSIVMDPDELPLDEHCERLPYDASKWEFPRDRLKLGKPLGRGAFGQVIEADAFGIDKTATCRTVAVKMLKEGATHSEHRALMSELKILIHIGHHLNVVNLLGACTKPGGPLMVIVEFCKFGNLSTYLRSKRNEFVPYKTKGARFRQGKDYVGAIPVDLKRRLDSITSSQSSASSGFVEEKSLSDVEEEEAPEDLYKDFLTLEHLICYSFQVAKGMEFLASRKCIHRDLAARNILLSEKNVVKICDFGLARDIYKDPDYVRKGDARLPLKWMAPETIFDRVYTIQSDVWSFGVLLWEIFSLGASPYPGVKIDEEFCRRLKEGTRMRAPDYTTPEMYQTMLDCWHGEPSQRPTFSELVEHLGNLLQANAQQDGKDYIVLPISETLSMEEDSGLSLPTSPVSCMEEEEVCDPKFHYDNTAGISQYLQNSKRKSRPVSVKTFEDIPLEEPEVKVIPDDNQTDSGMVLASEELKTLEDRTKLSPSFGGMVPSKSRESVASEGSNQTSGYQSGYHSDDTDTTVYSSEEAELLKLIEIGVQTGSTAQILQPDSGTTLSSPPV
Tb-labeled inactive PDGFRβ, sequence (P09619 whole entry, looked up): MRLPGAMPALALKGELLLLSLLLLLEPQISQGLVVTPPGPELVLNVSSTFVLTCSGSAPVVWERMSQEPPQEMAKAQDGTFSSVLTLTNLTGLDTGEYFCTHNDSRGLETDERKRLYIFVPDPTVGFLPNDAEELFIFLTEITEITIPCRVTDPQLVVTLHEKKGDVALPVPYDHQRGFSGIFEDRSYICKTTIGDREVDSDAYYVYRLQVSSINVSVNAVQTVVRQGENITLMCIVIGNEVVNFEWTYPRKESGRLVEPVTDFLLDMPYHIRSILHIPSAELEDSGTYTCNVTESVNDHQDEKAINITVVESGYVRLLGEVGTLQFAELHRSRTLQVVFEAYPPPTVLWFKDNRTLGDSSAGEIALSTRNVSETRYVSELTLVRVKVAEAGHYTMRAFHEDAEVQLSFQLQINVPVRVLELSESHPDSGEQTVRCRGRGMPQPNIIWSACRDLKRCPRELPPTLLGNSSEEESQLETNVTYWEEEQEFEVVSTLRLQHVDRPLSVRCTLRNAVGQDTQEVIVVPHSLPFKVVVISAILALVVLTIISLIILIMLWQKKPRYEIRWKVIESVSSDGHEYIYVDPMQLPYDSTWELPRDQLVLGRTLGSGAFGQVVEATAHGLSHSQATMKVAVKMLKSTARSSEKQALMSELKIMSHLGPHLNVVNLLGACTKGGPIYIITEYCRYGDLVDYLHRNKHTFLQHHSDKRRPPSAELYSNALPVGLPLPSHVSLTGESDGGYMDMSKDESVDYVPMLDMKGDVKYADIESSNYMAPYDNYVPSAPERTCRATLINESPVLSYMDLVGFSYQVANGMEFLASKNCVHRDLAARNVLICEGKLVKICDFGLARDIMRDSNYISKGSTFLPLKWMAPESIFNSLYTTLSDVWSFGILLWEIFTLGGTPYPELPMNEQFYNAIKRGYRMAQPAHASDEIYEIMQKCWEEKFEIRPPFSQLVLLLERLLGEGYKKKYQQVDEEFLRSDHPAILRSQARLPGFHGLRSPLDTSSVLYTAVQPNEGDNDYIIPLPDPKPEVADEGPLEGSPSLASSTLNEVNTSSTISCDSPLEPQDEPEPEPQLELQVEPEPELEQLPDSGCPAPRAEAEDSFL
His6-TEV-PDGFRβ (557-1016), sequence (P09619 whole entry, looked up): as above
PDGFRβ, sequence (Q05030 whole entry, looked up): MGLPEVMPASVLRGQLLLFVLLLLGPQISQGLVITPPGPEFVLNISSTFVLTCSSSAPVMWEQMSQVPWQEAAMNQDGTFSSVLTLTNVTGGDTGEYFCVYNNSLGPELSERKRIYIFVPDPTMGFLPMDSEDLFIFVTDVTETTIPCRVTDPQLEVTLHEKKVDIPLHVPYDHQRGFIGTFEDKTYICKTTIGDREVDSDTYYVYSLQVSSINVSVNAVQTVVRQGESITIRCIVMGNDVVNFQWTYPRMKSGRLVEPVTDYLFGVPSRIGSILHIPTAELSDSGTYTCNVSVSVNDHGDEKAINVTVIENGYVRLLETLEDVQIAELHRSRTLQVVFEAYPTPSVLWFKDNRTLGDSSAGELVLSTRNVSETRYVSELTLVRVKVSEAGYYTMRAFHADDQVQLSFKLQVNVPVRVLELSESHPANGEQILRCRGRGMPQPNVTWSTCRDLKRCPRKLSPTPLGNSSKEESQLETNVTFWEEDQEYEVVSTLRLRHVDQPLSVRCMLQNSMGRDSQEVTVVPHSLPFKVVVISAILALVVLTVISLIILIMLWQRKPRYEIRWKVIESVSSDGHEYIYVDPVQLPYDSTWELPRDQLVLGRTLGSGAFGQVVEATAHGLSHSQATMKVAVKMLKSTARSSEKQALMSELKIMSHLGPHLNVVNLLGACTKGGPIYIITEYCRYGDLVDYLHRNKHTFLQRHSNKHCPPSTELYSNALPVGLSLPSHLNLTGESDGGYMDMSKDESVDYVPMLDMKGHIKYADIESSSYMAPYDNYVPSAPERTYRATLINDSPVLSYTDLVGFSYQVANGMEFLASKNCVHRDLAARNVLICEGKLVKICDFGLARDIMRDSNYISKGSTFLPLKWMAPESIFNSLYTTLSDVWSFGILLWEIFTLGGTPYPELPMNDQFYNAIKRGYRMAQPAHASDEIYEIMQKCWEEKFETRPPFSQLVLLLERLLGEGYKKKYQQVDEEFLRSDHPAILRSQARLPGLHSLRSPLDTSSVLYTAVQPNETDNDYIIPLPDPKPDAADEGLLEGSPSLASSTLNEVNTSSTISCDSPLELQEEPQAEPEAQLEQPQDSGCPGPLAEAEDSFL

Take `COCCn1cc(Nc2ncc3c(Nc4cc(NC(=O)CN5CCCC5(C)C)cnc4C)nn(C)c3n2)cn1` [Example 125, 2-(2,2-dimethylpyrrolidin-1-yl)-N-(5-((6-((1-(2-methoxyethyl)-1H-pyrazol-4-yl)amino)-1-methyl-1H-pyrazolo[3,4-d]pyrimidin-3-yl)amino)-6-methylpyridin-3-yl)acetamide]: the IC50 in assay [1] was 2.7 nM; in assay [2], 1.7 nM; in assay [3], 0.34 nM; in assay [4] it was greater than 7500 nM.
On the same counts, the results for `COCCn1cc(Nc2ncc3c(Nc4cc(NC(=O)CN5CC(C)(C)C5)cnc4C)nn(C)c3n2)cn1` [Example 126, 2-(3,3-dimethylazetidin-1-yl)-N-(5-((6-((1-(2-methoxyethyl)-1H-pyrazol-4-yl)amino)-1-methyl-1H-pyrazolo[3,4-d]pyrimidin-3-yl)amino)-6-methylpyridin-3-yl)acetamide] are 6 nM, 2.1 nM, 0.33 nM and 6880 nM.
For `COCCn1cc(Nc2ncc3c(Nc4cc(NC(=O)CN5CC6CCC5CC6)cnc4C)nn(C)c3n2)cn1` [Example 127, 2-(2-azabicyclo[2.2.2]octan-2-yl)-N-(5-((6-((1-(2-methoxyethyl)-1H-pyrazol-4-yl)amino)-1-methyl-1H-pyrazolo[3,4-d]pyrimidin-3-yl)amino)-6-methylpyridin-3-yl)acetamide], the IC50 in assay [1] amounted to 2.6 nM; in assay [2], 1.4 nM; in assay [3], 0.27 nM; in assay [4] it was 6490 nM.
`COCCn1cc(Nc2ncc3c(Nc4cc(NC(=O)CN5CCC[C@@H]5C)cnc4C)nn(C)c3n2)cn1` [Example 128, (S)—N-(5-((6-((1-(2-methoxyethyl)-1H-pyrazol-4-yl)amino)-1-methyl-1H-pyrazolo[3,4-d]pyrimidin-3-yl)amino)-6-methylpyridin-3-yl)-2-(2-methylpyrrolidin-1-yl)acetamide]: the IC50 in assay [1] was 4.5 nM; in assay [2] it was 3.6 nM; in assay [3], 0.47 nM; in assay [4], greater than 7500 nM.
Regarding `COCCn1cc(Nc2ncc3c(Nc4cc(NC(=O)CN5CCC(C)(C)C5)cnc4C)nn(C)c3n2)cn1` [Example 129, 2-(3,3-dimethylpyrrolidin-1-yl)-N-(5-((6-((1-(2-methoxyethyl)-1H-pyrazol-4-yl)amino)-1-methyl-1H-pyrazolo[3,4-d]pyrimidin-3-yl)amino)-6-methylpyridin-3-yl)acetamide], the IC50 in assay [1] came to 2.4 nM; in assay [2], 1.3 nM; in assay [3] it was 0.27 nM; in assay [4], 1420 nM.
As to `COCCn1cc(Nc2ncc3c(Nc4cc(NC(=O)CN5CCC56CCC6)cnc4C)nn(C)c3n2)cn1` [Example 130, N-(5-((6-((1-(2-methoxyethyl)-1H-pyrazol-4-yl)amino)-1-methyl-1H-pyrazolo[3,4-d]pyrimidin-3-yl)amino)-6-methylpyridin-3-yl)-2-(1-azaspiro[3.3]heptan-1-yl)acetamide], the IC50 in assay [1] was 4.7 nM; in assay [2], 1.5 nM; in assay [3] it was 0.37 nM; in assay [4], greater than 7500 nM.
Take `COCCn1cc(Nc2ncc3c(Nc4cc(NC(=O)CN5CCCC56CCC6)cnc4C)nn(C)c3n2)cn1` [Example 132, N-(5-((6-((1-(2-methoxyethyl)-1H-pyrazol-4-yl)amino)-1-methyl-1H-pyrazolo[3,4-d]pyrimidin-3-yl)amino)-6-methylpyridin-3-yl)-2-(5-azaspiro[3.4]octan-5-yl)acetamide]: the IC50 in assay [1] is 3.2 nM; in assay [2], 2 nM; in assay [3], 0.35 nM; in assay [4] it was greater than 7500 nM.
As to `Cc1ncc(NC(=O)CN(CCF)C2CCCC2)cc1Nc1nn(C)c2nc(Nc3cnn(C)c3)ncc12` [Example 133, 2-(cyclopentyl(2-fluoroethyl)amino)-N-(6-methyl-5-((1-methyl-6-((1-methyl-1H-pyrazol-4-yl)amino)-1H-pyrazolo[3,4-d]pyrimidin-3-yl)amino)pyridin-3-yl)acetamide], the IC50 in assay [1] is 4.1 nM; in assay [2], 2.4 nM; in assay [3] it was 0.44 nM; in assay [4], 5550 nM.
On the same counts, the results for `COC1CCN(CC(=O)Nc2cnc(C)c(Nc3nn(C)c4nc(Nc5cnn(C)c5)ncc34)c2)CC1` [Example 134, 2-(4-methoxypiperidin-1-yl)-N-(6-methyl-5-((1-methyl-6-((1-methyl-1H-pyrazol-4-yl)amino)-1H-pyrazolo[3,4-d]pyrimidin-3-yl)amino)pyridin-3-yl)acetamide] are 7.4 nM, 3.1 nM, 0.43 nM and greater than 7500 nM.
For the compound `CO[C@@H]1CCN(CC(=O)Nc2cnc(C)c(Nc3nn(C)c4nc(Nc5cnn(C)c5)ncc34)c2)C1` [Example 135, (R)-2-(3-methoxypyrrolidin-1-yl)-N-(6-methyl-5-((1-methyl-6-((1-methyl-1H-pyrazol-4-yl)amino)-1H-pyrazolo[3,4-d]pyrimidin-3-yl)amino)pyridin-3-yl)acetamide], the half-maximal inhibitory concentration (IC50) in assay [1] was 9.5 nM; in assay [2] it was 2.8 nM; in assay [3], 0.41 nM; in assay [4] it was greater than 7500 nM.
For the compound `CO[C@H]1CCN(CC(=O)Nc2cnc(C)c(Nc3nn(C)c4nc(Nc5cnn(C)c5)ncc34)c2)C1` [Example 136, (S)-2-(3-methoxypyrrolidin-1-yl)-N-(6-methyl-5-((1-methyl-6-((1-methyl-1H-pyrazol-4-yl)amino)-1H-pyrazolo[3,4-d]pyrimidin-3-yl)amino)pyridin-3-yl)acetamide], the IC50 is 12.2 nM in assay [1], 3.7 nM in assay [2], 0.52 nM in assay [3] and greater than 7500 nM in assay [4].
Turning to `COC1CN(CC(=O)Nc2cnc(C)c(Nc3nn(C)c4nc(Nc5cnn(C)c5)ncc34)c2)C1` [Example 137, 2-(3-methoxyazetidin-1-yl)-N-(6-methyl-5-((1-methyl-6-((1-methyl-1H-pyrazol-4-yl)amino)-1H-pyrazolo[3,4-d]pyrimidin-3-yl)amino)pyridin-3-yl)acetamide], the IC50 in assay [1] is 20.9 nM; in assay [2], 4.5 nM; in assay [3] it was 0.49 nM; in assay [4] it was greater than 7500 nM.
On the same counts, the results for `Cc1ncc(NC(=O)CN2CCCC2)cc1Nc1nn(C)c2nc(Nc3cnn(C)c3)ncc12` [Example 138, N-(6-methyl-5-((1-methyl-6-((1-methyl-1H-pyrazol-4-yl)amino)-1H-pyrazolo[3,4-d]pyrimidin-3-yl)amino)pyridin-3-yl)-2-(pyrrolidin-1-yl)acetamide] are 3.2 nM, 2.1 nM, 0.24 nM and greater than 7500 nM.
On the same counts, the results for `Cc1ncc(NC(=O)CN2CC[C@H](C)C2)cc1Nc1nn(C)c2nc(Nc3cnn(C)c3)ncc12` [Example 140, (S)—N-(6-methyl-5-((1-methyl-6-((1-methyl-1H-pyrazol-4-yl)amino)-1H-pyrazolo[3,4-d]pyrimidin-3-yl)amino)pyridin-3-yl)-2-(3-methylpyrrolidin-1-yl)acetamide] are 2.2 nM, 1.6 nM, 0.23 nM and greater than 7500 nM.
As to `Cc1ncc(NC(=O)CN2CCC[C@@H]2C)cc1Nc1nn(C)c2nc(Nc3cn(C)cn3)ncc12` [Example 142, (S)—N-(6-methyl-5-((1-methyl-6-((1-methyl-1H-imidazol-4-yl)amino)-1H-pyrazolo[3,4-d]pyrimidin-3-yl)amino)pyridin-3-yl)-2-(2-methylpyrrolidin-1-yl)acetamide], the IC50 is 13.4 nM in assay [1], 107 nM in assay [2], 4.66 nM in assay [3] and greater than 7500 nM in assay [4].
Turning to `Cc1ncc(NC(=O)CN2CCC[C@@H]2C)cc1Nc1nn(C)c2nc(Nc3ccnn3C)ncc12` [Example 143, (S)—N-(6-methyl-5-((1-methyl-6-((1-methyl-1H-pyrazol-5-yl)amino)-1H-pyrazolo[3,4-d]pyrimidin-3-yl)amino)pyridin-3-yl)-2-(2-methylpyrrolidin-1-yl)acetamide], the IC50 was 7.4 nM in assay [1], 11.7 nM in assay [2], 1.2 nM in assay [3] and greater than 7500 nM in assay [4].
On the same counts, the results for `Cc1ncc(NC(=O)CN2CCC[C@@H]2C)cc1Nc1nn(C)c2nc(Nc3cnn(C4COC4)c3)ncc12` [Example 144, (S)—N-(6-methyl-5-((1-methyl-6-((1-(oxetan-3-yl)-1H-pyrazol-4-yl)amino)-1H-pyrazolo[3,4-d]pyrimidin-3-yl)amino)pyridin-3-yl)-2-(2-methylpyrrolidin-1-yl)acetamide] are 5.1 nM, 2.8 nM, 0.35 nM and greater than 7500 nM.
As to `Cc1ncccc1Nc1ncc2c(Nc3cc(NC(=O)CN4CCC[C@@H]4C)cnc3C)nn(C)c2n1` [Example 145, (S)—N-(6-methyl-5-((1-methyl-6-((2-methylpyridin-3-yl)amino)-1H-pyrazolo[3,4-d]pyrimidin-3-yl)amino)pyridin-3-yl)-2-(2-methylpyrrolidin-1-yl)acetamide], the IC50 in assay [1] is 8.7 nM; in assay [2] it was 15.3 nM; in assay [3] it was 1.59 nM; in assay [4], greater than 7500 nM.

As usually defined, the IC50 is the concentration at which inhibition is half-maximal.
